Columns and labels:
[1] = tested on: stress ulcer on the gastric gland; assay: Stress ulcer (water immersion restraint); assay type: in vivo, male Donryu rats; conditions: 300 mg/kg oral, 10 minutes before immersion; 23° C. water, seven hours; hydrochlorides
Description: Male Donryu rats weighing 240-260 grams were immobilized in wire cages (cf. Japanese Journal of Pharmacology, 18, 9-18 (1968)) and placed under stress by immersing them in water at 23° C. to the level of the breast. Seven hours later, the animals were taken up from the water tank and immediately sacrificed by blowing and the stomach was excised. The stomach was inflated with 1% formalin and then cut open and the ulcer on the gastric gland were measured for length in mm. The total ulcer length per animal was designated as the ulcer index. In the above-mentioned test, the compounds (hydrochlorides) (test compounds (1) and (4)) prepared by the procedure of Examples 1 and 2, respectively and geranyl farnesylacetate were administered orally to the rats 10 minutes before the immersion. In the Table, the prevention ratio has the same meaning as defined for the indomethacin-induced ulcer in Example 16.

[2] = Acute toxicity--1 (oral, rats); assay type: in vivo; conditions: rat, in vivo, Wistar rats, observation 2 weeks, hydrochlorides
Description: (§1) Wistar rats, five weeks of age, were fed previously for one week and then subjected to the test. All the test compounds were administered orally. The observation period was 2 weeks. The test compounds (4), (1) and (16) used were the products prepared in the above Examples 2, 1 and 8, respectively, and were all in the form of hydrochlorides.

Wistar rats = assay: Acute toxicity--1 (oral, rats); assay type: in vivo; conditions: rats
Description: as §1

[3] = tested on: indomethacin-induced ulcers on the gastric mucosa; assay: Indomethacin-induced ulcer (antiulcerogenic activity); assay type: in vivo, male Donryu rats; conditions: Rattus norvegicus, 7 h; indomethacin 15 mg/kg s.c.; test compound 300 mg/kg oral, 10 minutes prior; hydrochlorides except one quaternary ammonium salt; read-out: Prevention ratio
Description: After fasting for 24 hours, male Donryu rats weighing 210 to 230 grams were administered subcutaneously with indomethacin suspended in 1% aqueous solution of carboxymethylcellulose at a dosage level of 15 mg/kg. Seven hours later, the animals were sacrificed by ether inhalation. The rat stomach was cut open and the indomethacin-induced ulcers appearing on the gastric mucosa were measured for their length in mm. The total length of ulcers per animal was designated as the ulcer index. The farnesylacetic acid ester derivatives (test compounds) prepared by any of the synthetic procedures described above and geranyl farnesylacetate as a control were orally administered 10 minutes prior to the indomethacin administration. The antiulcerogenic activity was evaluated in terms of the prevention ratio, i.e. the quotient of the difference in ulcer index between the test compound group and the control group divided by the ulcer index for the control group. The numbers in the test compound column are those previously assigned to the exemplary compounds of the present invention each represented by a structural formula, and the example numbers are the numbers of examples wherein preparation of the corresponding compounds is described. The test compounds were all hydrochlorides except for one quaternary ammonium salt.

[4] = Acute toxicity--2 (oral, mice); assay type: in vivo; conditions: mouse, in vivo, ddY mice, observation one week, hydrochlorides
Description: (§2) Five-week-old ddY mice were fed previously for one week and then subjected to the test. All the test compounds were administered orally and the observation period was one week. The test compounds (23), (7) and (13) used were the products of the above Example 5, 10 and 4, respectively and were all in the form of hydrochlorides (the product of Example 10 was converted into the hydrochloride by a conventional method).

ddY mice = assay: Acute toxicity--2 (oral, mice); assay type: in vivo; conditions: mice
Description: as §2

[5] = Aqueous solution of hydrochloride; assay type: physicochemical; conditions: in water
Description: Using the lower alkyl esters of farnesylacetic acids shown in Table 1 and the amino alcohols also shown in Table 1, ester exchange reaction was carried out by the procedure of Example 1, to prepare a variety of amine-nitrogen-containing farnesylacetic acid esters and hydrochlorides thereof. In the chemical formula appearing in the table, P stands for a prenyl group, G a geranyl group and F a farnesyl group.

ulcers = conditions: known compounds, prior art; cited from earlier work
rats = conditions: cited from earlier work
mice = conditions: cited from earlier work

Compound: CCN(CC)CCOC(=O)CCC=C(C)CCC=C(C)CCC=C(C)C [(1), 2-diethylaminoethyl farnesylacetate]
- Prevention ratio [1]: 42.1%
- LD50 at 336 h [2]: > 5400 mg/kg
- Number of dead animals/number of animals used (Wistar rats; dose 4.1 g/kg): 0/5
- Number of dead animals/number of animals used (Wistar rats; dose 5.4 g/kg): 0/5
- inhibition in vivo at 300 mg/kg [3]: 64.1%

Compound: CC[N+](CC)(CC)CCOC(=O)CCC=C(C)CCC=C(C)CCC=C(C)C [(2), farnesylacetoxyethyltriethylammonium bromide]
- inhibition in vivo at 300 mg/kg [3]: 68.8%

Compound: CC(C)=CCCC(C)=CCCC(C)=CCCC(=O)OCCCN(C)C [(4), 3-Dimethylaminopropyl farnesylacetate]
- Prevention ratio [1]: 40.1%
- LD50 at 336 h [2]: > 4000 mg/kg
- Number of dead animals/number of animals used (Wistar rats; dose 3 g/kg): 0/5
- Number of dead animals/number of animals used (Wistar rats; dose 4 g/kg): 0/5
- inhibition in vivo at 300 mg/kg [3]: 65.8%

Compound: CC(C)=CCCC(C)=CCCC(C)=CCCC(=O)OC(C)(C)CN(C)C [(7), 1,1-dimethyl-2-dimethylaminoethyl farnesylacetate]
- LD50 at 168 h [4]: 8400 mg/kg
- Number of dead animals/number of animals used (ddY mice; dose 6 g/kg): 0/4
- Number of dead animals/number of animals used (ddY mice; dose 8 g/kg): 1/3
- Number of dead animals/number of animals used (ddY mice; dose 10 g/kg): 3/3
- inhibition in vivo at 300 mg/kg [3]: 91.7%

Compound: CC(C)=CCCC(C)=CCCC(C)=CCCC(=O)OCCN(CC=C(C)CCC=C(C)C)CC=C(C)CCC=C(C)C [(13)]
- LD50 at 168 h [4]: 7000 mg/kg
- Number of dead animals/number of animals used (ddY mice; dose 1 g/kg): 0/3
- Number of dead animals/number of animals used (ddY mice; dose 2 g/kg): 1/3
- Number of dead animals/number of animals used (ddY mice; dose 6 g/kg): 2/3
- Number of dead animals/number of animals used (ddY mice; dose 10 g/kg): 2/3
- Number of dead animals/number of animals used (ddY mice; dose 20 g/kg): 3/3
- inhibition in vivo at 300 mg/kg [3]: 81.3%
- Appearance of aqueous solution of hydrochloride (water solubility) [5]: Insoluble

Compound: CCN(CCOC(=O)CCC=C(C)CCC=C(C)CCC=C(C)C)c1ccccc1 [(14)]
- inhibition in vivo at 300 mg/kg [3]: 70.2%
- Appearance of aqueous solution of hydrochloride (water solubility) [5]: Insoluble

Compound: CC(C)=CCCC(C)=CCCC(C)=CCC(Cc1ccccc1)C(=O)OCCN(C)C (stereo not shown) [(16)]
- LD50 at 336 h [2]: > 15000 mg/kg
- Number of dead animals/number of animals used (Wistar rats; dose 5 g/kg): 0/5
- Number of dead animals/number of animals used (Wistar rats; dose 10 g/kg): 1/5
- Number of dead animals/number of animals used (Wistar rats; dose 15 g/kg): 1/5
- inhibition in vivo at 300 mg/kg [3]: 84.5%

Compound: CC(C)=CCCC(C)=CCCC(C)=CCCC(=O)OCCN1CCN(CCO)CC1 [(23)]
- LD50 at 168 h [4]: 4000 mg/kg
- Number of dead animals/number of animals used (ddY mice; dose 1.3 g/kg): 0/3
- Number of dead animals/number of animals used (ddY mice; dose 4.0 g/kg): 2/4
- Number of dead animals/number of animals used (ddY mice; dose 6.6 g/kg): 3/3
- inhibition in vivo at 300 mg/kg [3]: 93.2%

Compound: CCN1CCC(OC(=O)CCC=C(C)CCC=C(C)CCC=C(C)C)CC1 [(24), N-ethyl-4-farnesylacetoxy-piperidine]
- inhibition in vivo at 300 mg/kg [3]: 76.6%

Compound: CC(C)=CCCC(C)=CCCC(C)=CCCC(=O)OCC1CCCCN1C (stereo not shown) [(26)]
- inhibition in vivo at 300 mg/kg [3]: 47.9%

Compound: CC(C)=CCCC(C)=CCCC(C)=CCCC(=O)OCC=C(C)CCC=C(C)C [Geranyl farnesylacetate, 3,7-dimethyl-2,6-octadienyl 5,9,13-trimethyl-4,8,12-tetradecatrienoate]
- Prevention ratio [1]: 32.0%
- antiulcer / antiulcerogenic activity (in words) (ulcers): high antiulcerogenic activity
- inhibition in vivo at 300 mg/kg [3]: 6.1%
- LD50 (rats): more than 8 g/kg
- LD50 (mice): more than 8 g/kg

Reference: patent US4289786A, “Farnesylacetic acid ester derivatives” (Kuraray Co., Ltd., priority 1978, dated 1981)
